# Assay results taken from patent US11179452B2, “Antigen specific multi epitope vaccines” (priority 2006, dated 2021).
# No end group written: not given here.
# Key:
# [1] = tested on: ImMucin specific T-cell subpopulation; experiment: Proliferation of the ImMucin-specific T-cell subpopulation after three stimulations; type: cell-based, human; conditions: one out of two experiments, four donors
# Text: Thawed PBLs underwent 1st stimulation with ImMucin pulsed Autologues DC at a ratio of 20:1 and cultured for 7 days in dedicated T cell Medium. T cell medium contained RPMI medium supplemented with 10% FCS, L-Glutamine, Sodium Pyruvate, MEM-EAGLE non-essential amino-acids, HEPES and Gentamycin Sulphate (Bet-Haemek Industries, IL) as well as with 50 IU/ml of recombinant IL-7 (Cytolab IL). For the second stimulation, PBL were transferred to adherent autologues ImMucin-pulsed PBMC and cultured for additional 5 days in T cell Medium. At the end of the 5 days, medium was partial replaced with fresh medium containing 1 ug/ml of ImMucin and 50 IU/ml IL-2 for a third stimulation of 48 h at 37° C. Following the last stimulation ImMucin T cell line was checked for immune activation properties.
# Proliferation analysis was conducted in three different methods. In all three methods, plates were cultured for 3-5 days under visual control and then 0.5 […]Cu/well of 3[H] (Amersham) was added for additional culture of to 18 h at 37° C. In the last step, plates were harvested and the radioactive counts were measured in a □ counter. • 1. DC indirect presentation: In the first method, 100 µl of 2×10^6 thawed PBL were placed in U-shape Bottom 96 well plate (Nunc) with RPMI medium supplemented with 5% H AB serum, L-Glutamine, Sodium Pyruvate, MEM-EAGLE non-essential amino-acids, HEPES and Gentamycin. At the next stage 100 µl of 25×10^4 peptide-pulsed DC were added to each three wells of PBL and underwent proliferation analysis as described above. • 2. PBL direct presentation: In the 2nd method, 100 µl of 2×10^6 PBL were placed in Flat Bottom 96 well plates (Corning) and stimulated with different concentrations (0.05 ug/ml-2 ug/ml) of peptides. In the next step the cells underwent proliferation analysis as described above. • 3. PBMC direct presentation: In third method PNMC were used under similar conditions as described for the second method.
# For that purpose, an enriched ImMucin-specific T cell subpopulation was produced via repeated stimulation with ImMucin. The specificity of the subpopulation for ImMucin, as well as to the other VXL epitopes, was examined using proliferation assays, cytokine release assays, FACS analysis in which the percentage and type of cells enriched during the enrichment process was analyzed, and using a CTL assay against selected target cells.
# For producing the specific T cell subpopulation PBL were stimulated three times for 7, 5 and 2 days with ImMucin presented via DC and PBMC. Following the 3rd stimulation the cells were evaluated against the different VXL epitopes.
# HT-29 = experiment: In vitro cytotoxic assay (CTL) of ImMucin-stimulated HLA-A2.1 positive T-cell clone; type: cell-based; conditions: HT-29 Human Colon Carcinoma, MUC1 −, ratio 1:50
# Method: (§1) Effector cells were ImMucin specific enriched T-Cell clone. Viable lymphocytes (effector cells), were centrifugation, resuspended in RPMI-HEPES medium, and admixed at different ratios with 5×10^3 35S methionine-labeled, tumor cells. CTL assays were performed in U-shaped microtiter wells, at 37° C., 5% CO2 for 5 hours. Cultures were terminated by centrifugation at 1000 rpm for 10 min at […]. A total of 100 µl of the supernatants was mixed with scintillation fluid and measured in a □□ counter (Becton Dickinson Canberra Australia). Percentage of specific lysis was calculated as follows: % lysis=(cpm in experimental well−cpm spontaneous release)/(cpm maximal release−cpm spontaneous release)×100. Spontaneous release was determined by incubation of 100 µl-labeled target cells with 100 µl of medium. Maximal release was determined by lysis of target cells in 100 µl 10% TrytonX-100.
# (§2) In order to further evaluate the class II/class I cross presentation as well as the specificity and function of the T-cell clones, their class I restricted lysis potential was analyzed. For this assay the clones were screened for Class I HLA-A2.1 expression and their potential to lyse MUC1 and HLA-A2.1 positive and negative cell-lines was evaluated. […] The results summarized in Table 10 show a MUC1 as well as HLA-A2.1-restricted lysis. A breast tumor cell such as MDA-MB-231 which expresses both MUC1 and HLA-A2.1 was lysed effectively (23%), while another breast tumor cell line MDA-MB-468 which expresses only MUC1 but not the HLA-2.1 was not lysed al all. Other control cell-lines didn't manifest any lysis (see table 10).
# MDA-MB-486 = experiment: as above; type: cell-based; conditions: MDA-MB-486 Human Brest Carcinoma, MUC1 ++, ratio 1:50
# Method: as §1, §2
# Molt-4 = experiment: as above; type: cell-based; conditions: Molt-4 Human T cell Leukemia, MUC1 −, ratio 1:50
# Method: as §1, §2
sequence,measurement,setting,value
MTPGTQSPFFLLLLLTVLTVV [ImMucin],IS (Average),[1],3.2
same,IS (Range),[1],2.2-4.2
same,Lysis % (1:50),HT-29,0%
same,Lysis % (1:50),MDA-MB-486,0%
same,Lysis % (1:50),Molt-4,1.1%
